Results: PubChem BioAssay (NCI)
Values joined by “and” are separate entries in the source; they are usually repeats but may differ in a detail not shown here. Equal values may be shown once.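 Briefly, cells in 96-well plates were exposed to five compound concentrations for 48 h, and endpoints were estimated by linear interpolation. At the GI50, growth is halved. TGI marks complete inhibition of growth.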

Experiments:
Assay in all cases: growth of human tumour cells (NCI), 48 h
HCT-15 colon = system: HCT-15 colon
A498 renal = system: A498 renal
SK-MEL-2 melanoma = system: SK-MEL-2 melanoma
OVCAR-5 ovarian = system: OVCAR-5 ovarian
SW-620 colon = system: SW-620 colon
RXF 393 renal = system: RXF 393 renal
SNB-75 CNS = system: SNB-75 CNS
U251 CNS = system: U251 CNS
786-0 renal = system: 786-0 renal
MDA-MB-231 breast = system: MDA-MB-231 breast

Row | SMILES | GI50 (HCT-15 colon) | TGI (HCT-15 colon) | GI50 (A498 renal) | TGI (A498 renal) | GI50 (SK-MEL-2 melanoma) | TGI (SK-MEL-2 melanoma) | GI50 (OVCAR-5 ovarian) | TGI (OVCAR-5 ovarian) | GI50 (SW-620 colon) | TGI (SW-620 colon) | GI50 (RXF 393 renal) | TGI (RXF 393 renal) | GI50 (SNB-75 CNS) | TGI (SNB-75 CNS) | GI50 (U251 CNS) | TGI (U251 CNS) | GI50 (786-0 renal) | TGI (786-0 renal) | GI50 (MDA-MB-231 breast) | TGI (MDA-MB-231 breast)
1 | N#CC1(c2ccc(NC(=O)c3cccnc3NCc3ccncc3)cc2)CCCC1 | 8.12 µM | 39.3 µM | 10.2 µM | 60.9 µM | 11.9 µM | 32 µM | 22.5 µM | > 91.8 µM | 24.2 µM | 72.1 µM | 2.81 µM | 12.3 µM | 8.08 µM | 56.7 µM | 12 µM | 25.8 µM | 14.5 µM | 49.6 µM | 11.3 µM | 52.8 µM
2 | O=C(Nc1cccc(-n2cc(-c3ccncc3)c(-c3cc(O)cc(Cl)c3)n2)c1)c1ccc(N2CCOCC2)c(C(F)(F)F)c1 | 0.559 µM | 11.3 µM | 19.4 µM | 73.2 µM | 2.34 µM | 13.2 µM | 14.8 µM | 39.6 µM | 2.83 µM | 7.06 µM | 0.303 µM | 1.9 µM | 0.722 µM | > 100 µM | 1.4 µM | 6.3 µM | 2.24 µM | 10.1 µM | 0.327 µM | 1.66 µM
3 | C[C@]12CC[C@H]3[C@@H](CCC4=CC(=O)CC[C@@]43C)[C@@H]1CC[C@@H]2c1csc(N)n1 | 4.2 µM | 19.1 µM | 2.51 µM | 12.4 µM | 14.5 µM | 32.7 µM | 15 µM | 38.7 µM | 5.28 µM | 20.8 µM | 10.8 µM | 24.2 µM | 8.62 µM | 24.2 µM | 3.83 µM | 19 µM | 10.7 µM | 33.4 µM | 8.82 µM | 28.7 µM
4 | COC1N(C2CC(O)C(CO)O2)C(=O)NC(=O)C1(F)Br (stereo not drawn) | 26.3 µM | 50 µM and > 100 µM | 0.821 µM | 50 µM and > 65 µM | > 50 µM | > 100 µM | > 50 µM | > 100 µM | 27.7 µM | 50 µM and > 100 µM | 37.2 µM | 50 µM and > 100 µM | 7.44 µM | 50 µM and 81.6 µM | – | 50 µM and > 100 µM | 31.9 µM | 50 µM and > 100 µM | – | > 100 µM
5 | COc1ccc2c(N)ncc(C#Cc3cc(C(=O)Nc4ccc(CN5CCN(C)CC5)c(C(F)(F)F)c4)cnc3C)c2c1 | 0.386 µM | 0.956 µM | 0.842 µM | 3 µM | 0.771 µM | 2.67 µM | 1.33 µM | 3.78 µM | 0.578 µM | 1.3 µM | 0.502 µM | 1.11 µM | 0.729 µM | 4.38 µM | 0.581 µM | 1.15 µM | 0.673 µM | 1.25 µM | 0.501 µM | 1.16 µM
6 | O=C(/C=C/C12c3ccccc3C(c3ccccc31)C1C(=O)NC(=O)C12)c1ccccn1 (stereo not drawn) | 1.17 µM | 3.35 µM | 1.66 µM | 3.15 µM | 1.76 µM | 3.95 µM | 2.04 µM | 4.54 µM | 1.69 µM | 5.03 µM | 1.61 µM | 3.12 µM | 1.67 µM | 4.34 µM | 1.4 µM | 2.74 µM | 1.74 µM | 4 µM | 1.49 µM | 4.44 µM
7 | CCNc1nc(O)c(/C=C2\C=Nc3ncccc32)s1 | 5.18 µM | > 100 µM | 2.12 µM | 6.15 µM | 3.04 µM | 8.93 µM | 2.37 µM | > 100 µM | 3.42 µM | 27.1 µM | 2.05 µM | 4.29 µM | 1.92 µM | 4.25 µM | 2.6 µM | 8.24 µM | 2.71 µM | > 100 µM | 4.17 µM | > 100 µM
8 | CSC1=Nc2c(c(C)c(C)n2COC(CO)CO)C2=NC(=O)CN12 | > 100 µM | > 100 µM | > 100 µM | > 100 µM | > 100 µM | > 100 µM | > 100 µM | > 100 µM | > 100 µM | > 100 µM | > 100 µM | > 100 µM | 63 µM | > 100 µM | > 100 µM | > 100 µM | > 100 µM | > 100 µM | > 100 µM | > 100 µM
9 | OC1(c2ccc(Cl)c(C(F)(F)F)c2)CCN(CCCC(c2ccc(F)cc2)c2ccc(F)cc2)CC1 | 0.888 µM | 1.75 µM | 0.515 µM | 1.12 µM | 0.955 µM | 1.76 µM | 0.868 µM | 1.77 µM | 0.76 µM | 1.43 µM | 0.638 µM | 1.27 µM | 0.713 µM | 1.43 µM | 0.784 µM | 1.45 µM | 0.832 µM | 1.52 µM | 0.795 µM | 1.52 µM
10 | CCN(CC)Cc1cc(Nc2nc(NC3CCC(N(C)C)CC3)c3ccccc3n2)ccc1OC (stereo not drawn) | 15.2 µM | 35.3 µM | 12.5 µM | 25.2 µM | 3.09 µM | 7.52 µM | 5 µM | 20.7 µM | 3.18 µM | 13.3 µM | 0.578 µM | 8.44 µM | 2.17 µM | 17.5 µM | 3.61 µM | 14.5 µM | 6.67 µM | 19.3 µM | 1.7 µM | 6.09 µM
11 | COC(=O)OC1C(O[C@H]2C[C@H]3[C@@H]4CC=C5C[C@@H](O)CC[C@]5(C)[C@H]4CC[C@]3(C)[C@H]2[C@H](C)C(=O)CCC(C)C)OCC(O)C1OC1OCC(O)C(O)C1OC(=O)c1ccc(OC)cc1 (stereo partly drawn) | 0.137 µM | 1.26 µM | < 0.00275 µM | 0.0108 µM | 0.00538 µM | 0.0855 µM | 0.0982 µM | 2.63 µM | 0.00877 µM | 0.277 µM | < 0.00275 µM | 0.00948 µM | < 0.00275 µM | 3.77 µM | 0.00297 µM | 3.91 µM | < 0.00275 µM | 0.503 µM | 0.082 µM | 4.46 µM
12 | COc1ccc(OC)c(NCC(=O)n2nc(/C=C\c3ccc(O)c(OC)c3)cc2/C=C\c2ccc(O)c(OC)c2)c1 | 2.09 µM | 11.8 µM | 1.6 µM | 5.7 µM | 2.3 µM | 7.04 µM | 2.35 µM | 5.54 µM | 2.03 µM | 5.48 µM | 1.51 µM | 3.19 µM | 2.2 µM | 9.75 µM | 2.36 µM | 12 µM | 2.1 µM | 7.97 µM | 3.02 µM | > 100 µM
13 | Cn1c([N+](=O)[O-])cnc1C=C1C(=O)c2ccccc2C1=O | 2.13 µM | 6.77 µM | 7.05 µM | 22.6 µM | 2.46 µM | 6.24 µM | 6 µM | 18.7 µM | 3.34 µM | 13.1 µM | 2.6 µM | 10.3 µM | 2.99 µM | 39.6 µM | 5.8 µM | 20.7 µM | 5.18 µM | 28.3 µM | 2.72 µM | 10.1 µM
14 | COc1ccc2c(c1)c(-c1nc(-c3c[nH]c4ncccc34)cs1)cn2CCCN1CCOCC1 | 2.32 µM | 7.7 µM | 0.481 µM | 2.04 µM | 1.88 µM | 3.77 µM | 2.6 µM | 7.91 µM | 2.26 µM | 5.24 µM | 2.09 µM | 4.88 µM | 1.27 µM | 3.4 µM | 2.25 µM | 5.09 µM | 1.74 µM | 3.44 µM | 1.86 µM | 4.54 µM
